Data on two compounds can be found in US9587205B2, “Activation of peroxygen bleach” (Warwick International Group Limited, priority 2012, dated 2017).

Molecules are shown by their SMILES.

This series in a line: Peracid (peracetic acid) release rate, iodometric titration. The series is classed as physicochemical. Particulars: for Peracid Release (% th. max): time 5 mins, 20° C., 75 rpm, actual PAR/theoretical PAR.

Method: The invention is illustrated by determining the rate of peracid release as a proportion of the maximum achievable based on acetyl groups available for reaction with perhydroxyl ion.
In this specification the method used to measure peracid generation is an iodometric titration carried out as follows: 25 g of a mixture of 85% by weight IEC A*base detergent, 10% sodium percarbonate and 5% activator, accurately weighed, is added to it deionised water at 20° C. in a beaker stirred by overhead stirrer at 75 rpm at t=0. After predetermined times from 2 mins, a 50 ml sample of the solution is added to a mixture of 15 ml glacial acetic acid and 5 ml of a 10% solution of potassium iodide at 0° C. and titrated against 0.05M sodium thiosulphate using a suitable indicator for iodine as quickly as possible. The theoretical amount of peracid released (PAR) is calculated as follows:
[formula] for TriAED the moles of peracid released is 1, for TAED it is 2.
The actual amount of peracid released (actual PAR) is calculated from the titre of thiosulphate and its molarity, based on the correlation of 2 moles thiosulphate to 1 mole of peracid. The results reported are of actual PAR/theoretical PAR for each time point.
Testing of peracetic acid release rate is carried out according to the standard test method described above.

`CC(=O)N(CCN(C(C)=O)C(C)=O)C(C)=O` [TAED, Tetra-acetylethylene diamine]: the “Peracid Release (% th. max)” value stood at 45 % th. max. Also, for the setting “within two minutes of being added to water at 20° C.”, the “peracid release as a proportion of the maximum achievable” value is “less than 70%”.

For the compound `CC(=O)NCCN(C(C)=O)C(C)=O` [Tri AED, N,N,N′-triacetylethylene diamine], the “Peracid Release (% th. max)” value was 92 % th. max.
